Experimental data reported in ChEMBL document CHEMBL5149994, “Anticancer potential of indirubins in medicinal chemistry: Biological activity, structural modification, and structure-activity relationship” (Eur J Med Chem, 2021).
≈ marks a conversion by molar mass, not a printed value. Values belong to the compound of their own block, whether it stands above or below them.

Tests used:
[1] = test system: MCF7; test: Cytotoxicity against human MCF7 cells assessed as cell growth inhibition measured after 4 days by crystal violet staining based assay; type: functional; details: MCF7, 96 h
[2] = Inhibition of GST-tagged recombinant human CDK2/cyclin E expressed in Sf9 cells incubated for 10 mins in presence of [33P]-gamma ATP and ATP by scintillation counter method
[3] = Kinetic solubility of compound in PBS at pH 7.4; type: physicochemical; details: read-out: Kinetic_solubility
[4] = biological target: CDK2/Cyclin A2 (Homo sapiens, UniProt P24941); test: Inhibition of CDK2/cyclin A (unknown origin); type: protein-complex assay
[5] = test system: SW480; test: Antiproliferative activity against human SW480 cells assessed as cell growth inhibition measured after 72 hrs by MTT assay; type: functional, cell-based; details: SW480, 72 h
[6] = test system: HL-60; test: Antiproliferative activity against human HL-60 cells assessed as cell growth inhibition measured after 72 hrs by MTT assay; type: functional, cell-based; details: HL-60, 72 h
[7] = Antiproliferative activity against human Lu1 cells assessed as cell growth inhibition measured after 72 hrs by MTT assay; type: functional, cell-based; details: Lu1, 72 h
[8] = test system: HepG2; test: Antiproliferative activity against human HepG2 cells assessed as cell growth inhibition measured after 72 hrs by MTT assay; type: functional, cell-based; details: HepG2, 72 h
[9] = test system: HT-1080; test: Antiproliferative activity against human HT-1080 cells assessed as cell growth inhibition measured after 24 hrs by MTT assay; type: functional, cell-based; details: HT-1080, 24 h
[10] = test system: A549; test: Antiproliferative activity against human A549 cells assessed as cell growth inhibition measured after 24 hrs by MTT assay; type: functional, cell-based; details: A549, 24 h
[11] = test system: SNU-638; test: Antiproliferative activity against human SNU-638 cells assessed as cell growth inhibition measured after 24 hrs by MTT assay; type: functional, cell-based; details: SNU-638, 24 h
[12] = Cytotoxicity against rat RK3E cells harboring RAS assessed as cell growth inhibition measured after 24 hrs by MTT assay; type: toxicity, cell-based
[13] = test system: K562; test: Antiproliferative activity against human K562 cells assessed as cell growth inhibition measured after 48 hrs by CCK-8 assay; type: functional, cell-based; details: K562, 48 h
[14] = biological target: Indoleamine 2,3-dioxygenase 1 (Homo sapiens, UniProt P14902); test: Inhibition of IDO1 in human Hela cells assessed as reduction in N-formylkynurenine formation incubated for 30 mins; type: cell-based
Chain of Indoleamine 2,3-dioxygenase 1 (P14902 whole entry): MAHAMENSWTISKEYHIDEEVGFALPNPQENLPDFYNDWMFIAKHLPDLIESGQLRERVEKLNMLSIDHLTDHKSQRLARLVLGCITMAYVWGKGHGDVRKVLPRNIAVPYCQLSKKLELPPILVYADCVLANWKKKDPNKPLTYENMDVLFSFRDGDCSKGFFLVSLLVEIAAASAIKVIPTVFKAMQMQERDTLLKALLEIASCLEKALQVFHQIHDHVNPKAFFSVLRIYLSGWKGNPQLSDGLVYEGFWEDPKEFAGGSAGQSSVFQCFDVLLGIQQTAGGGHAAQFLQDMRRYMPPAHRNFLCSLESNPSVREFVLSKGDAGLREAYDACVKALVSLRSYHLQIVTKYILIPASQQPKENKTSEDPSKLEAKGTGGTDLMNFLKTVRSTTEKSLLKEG

[15] = test system: NCI-H157; test: Cytotoxicity against human NCI-H157 cells assessed as cell growth inhibition at 100 uM by calcein-AM staining based flow cytometry analysis relative to control; type: functional; parameters: scale not given: the % may be the effect or the level left
[16] = test system: DU-145; test: Antiproliferative activity against human DU-145 cells assessed as cell growth inhibition by MTT assay; type: functional, cell-based
[17] = test system: MCF7; test: Cytotoxicity against human MCF7 cells assessed as cell growth inhibition; type: functional, cell-based
[18] = test system: SK-MEL-103; test: Cytotoxicity against human SK-MEL-103 cells assessed as cell growth inhibition measured after 24 hrs by WST-1 assay; type: functional, cell-based; details: SK-MEL-103, 24 h
[19] = test system: SK-MEL19; test: Cytotoxicity against human SK-MEL19 cells assessed as cell growth inhibition measured after 24 hrs by WST-1 assay; type: functional, cell-based; details: SK-MEL19, 24 h
[20] = Cytotoxicity against human SK-MEL-29 cells assessed as cell growth inhibition measured after 24 hrs by WST-1 assay; type: functional, cell-based; details: SK-MEL-29, 24 h
[21] = test system: SW480; test: Antiproliferative activity against human SW480 cells assessed as cell growth inhibition; type: functional, cell-based
[22] = Antiproliferative activity against human Lu1 cells assessed as cell growth inhibition; type: functional, cell-based
[23] = test system: HepG2; test: Antiproliferative activity against human HepG2 cells assessed as cell growth inhibition; type: functional, cell-based
[24] = test system: HL-60; test: Antiproliferative activity against human HL-60 cells assessed as cell growth inhibition; type: functional, cell-based
[25] = test system: CH1; test: Antiproliferative activity against human CH1 cells assessed as cell growth inhibition measured after 96 hrs by MTT assay; type: functional, cell-based; details: CH1, 96 h
[26] = test system: SW480; test: Antiproliferative activity against human SW480 cells assessed as cell growth inhibition measured after 96 hrs by MTT assay; type: functional, cell-based; details: SW480, 96 h
[27] = test system: A549; test: Antiproliferative activity against human A549 cells assessed as cell growth inhibition measured after 96 hrs by MTT assay; type: functional, cell-based; details: A549, 96 h
[28] = test system: HL-60; test: Cytotoxicity against human HL-60 cells assessed as cell growth inhibition; type: functional, cell-based

Compound: O=C1Nc2ccccc2/C1=C1/Nc2ncccc2C1=O
IC50 [4]: 8.8 µM

Compound: O=C1Nc2ccc(OC(F)(F)F)cc2/C1=C1/[Se]c2ccccc2C1=O
Activity [15]: 17.4%

Compound: C=CCC1(O)/C(=C2/C(=O)Nc3ccc(S(=O)(=O)N(C)C)cc32)Nc2ccccc21 (stereo not given)
IC50 [1]: 0.2 µM
IC50 [2]: 0.09 µM
solubility kinetic [3]: 31 µg/mL (≈ 75.3 µM)

Compound: C[C@@H]1O[C@@H](N2C(=O)/C(=C3\Nc4ccccc4C3=O)c3ccccc32)[C@H](O)[C@H](O)[C@H]1O
IC50 [17]: 0.76 µM

Compound: C[C@@H]1O[C@H](N2C(=O)/C(=C3\Nc4ccccc4C3=O)c3ccccc32)[C@H](O)[C@H](O)[C@H]1O
IC50 [17]: 0.67 µM
IC50 [18]: 383 µM
IC50 [19]: 65.4 µM
IC50 [20]: 86.6 µM

Compound: NCCO/N=C1/C(=C2/C(=O)Nc3ccc(Br)cc32)Nc2ccc(O)cc21
IC50 [25]: 0.28 µM
IC50 [26]: 0.52 µM
IC50 [27]: 1 µM

Compound: O=C1/C(=C2/C(=O)N(CCN3CCCC3)c3ccccc32)Nc2ccccc21
IC50 [28]: 3.56 µM

Compound: O=C1/C(=C2/C(=O)N(CC(O)CSc3nnc(Nc4ccccc4)s3)c3ccccc32)Nc2ccccc21 (stereo not given)
IC50 [21]: 1.65 µM
IC50 [22]: 2.21 µM
IC50 [23]: 1.9 µM
IC50 [24]: 1.35 µM

Compound: Cc1cn(C2CC(n3cc(COCCOCCOCCN4C(=O)/C(=C5\Nc6ccccc6C5=O)c5ccccc54)nn3)C(CO)O2)c(=O)[nH]c1=O (stereo not given)
IC50 [13]: 34.2 µM
IC50 [14]: 54.7 µM

Compound: C[C@@H]1O[C@H](N2C(=O)/C(=C3\[Se]c4ccccc4C3=O)c3ccccc32)[C@H](O)[C@H](O)[C@H]1O
Activity [15]: 16.7%

Compound: CN(C)CCN(C)S(=O)(=O)c1ccc2c(c1)/C(=C1/Nc3ccccc3/C1=N\O)C(=O)N2
IC50 [1]: < 0.1 µM
IC50 [2]: 0.04 µM
solubility kinetic [3]: 18 µg/mL (≈ 40.8 µM)

Second part, led by results:

solubility kinetic [3]: > 40 µg/mL
Compound: CN(C)S(=O)(=O)c1ccc2c(c1)/C(=C1/Nc3ccccc3C1(C)O)C(=O)N2 (stereo not given)
IC50 [1]: 0.7 µM
IC50 [2]: 0.07 µM

IC50 [5]: 3.43 µM
IC50 [6]: 1.28 µM
IC50 [8]: 2.28 µM
Compound: CCCOc1ccccc1/C=C/C(=O)c1ccc(OCCn2cc(CN3C(=O)/C(=C4\Nc5ccccc5\C4=N/O)c4ccccc43)nn2)cc1O
IC50 [7]: 2.07 µM

IC50 [9]: 4.2 µM
IC50 [10]: 6.4 µM
IC50 [11]: 6.5 µM
Compound: CC(C)(C)C(=O)Nc1ccc2c(c1)/C(=C1/Nc3ccccc3/C1=N\O)C(=O)N2
IC50 at 24 h [12]: 6.4 µM

IC50 [13]: 42.2 µM
IC50 [14]: 33.9 µM
Compound: O=C1CCC(N2C(=O)c3cccc(-n4cc(COCCOCCOCCN5C(=O)/C(=C6\Nc7ccccc7C6=O)c6ccccc65)nn4)c3C2=O)C(=O)N1 (stereo not given)

IC50 [16]: 8 µM
Compound: CCN1C(=O)/C(=C2\Nc3ccccc3\C2=N/O)c2cccnc21

IC50 [9]: 3.4 µM
IC50 [10]: 12.2 µM
IC50 [11]: 2.1 µM
Compound: O=C1Nc2ccc(F)cc2/C1=C1/Nc2ccccc2/C1=N\O
IC50 at 24 h [12]: 5.1 µM

IC50 [21]: 4.19 µM
IC50 [23]: 4.47 µM
IC50 [24]: 4.28 µM
Compound: Cc1ccc(Nc2nnc(SCC(O)CN3C(=O)/C(=C4\Nc5ccccc5C4=O)c4ccccc43)s2)c(C)c1 (stereo not given)
IC50 [22]: 4.53 µM

IC50 [5]: 2.91 µM
IC50 [6]: 1.29 µM
IC50 [8]: 2.95 µM
Compound: CCCOc1cccc(/C=C/C(=O)c2ccc(OCCn3cc(CN4C(=O)/C(=C5\Nc6ccccc6\C5=N/O)c5ccccc54)nn3)cc2O)c1
IC50 [7]: 2.5 µM

IC50 [26]: 5.6 µM
IC50 [27]: 7.6 µM
Compound: CC(=O)O[C@H](CN)CC(=O)O/N=C1/C(=C2/C(=O)Nc3ccccc32)Nc2ccc(O)cc21
IC50 [25]: 1.8 µM

IC50 [16]: 1.8 µM
Compound: CN1C(=O)/C(=C2\Nc3ccc(Cl)cc3\C2=N/O)c2cccnc21

IC50 [4]: 9.5 µM
Compound: CC(C)N1C(=O)/C(=C2\Nc3ccccc3C2=O)c2cccnc21
